The text below walks through data of patent US4663325A, “1-(2,3,4-tri-methoxybenzyl)-4[bis(4-fluorophenyl)methyl] piperazines are useful for treating cerebrovascular disease” (Kanebo Ltd., priority 1984, dated 1987).

Each structure is given as a SMILES string.

For orientation: LD50 means the dose expected to kill half of the subjects tested. Low values mean a more toxic substance, high ones a less toxic substance. A word on the ED50: it is the dose that gives a 50% effect, or the effect in half of the subjects.

One series deals with vertebral blood flow. Put plainly: Activity of increasing cerebral blood flow (vertebral blood flow as index, anesthetized dogs, intravenous). The series is classed as in vivo. Conditions: 1 mg/kg i.v. (right femoral vein), anesthetized mongrel dogs. The procedure: The activity of increasing cerebral blood flow was measured by using the amount of vertebral blood flow as an index. Mongrel dogs of either sex (body weight 11 to 18 kg; four per groups) were anesthetized with sodium pentobarbital (30 mg/kg, by intravenous injection), and the right vertebral artery was isolated from the surrounding tissues. A flow probe was attached to it and led to an electromagnetic flow meter (MFV-2100 made by Nihon Kohden Co., Ltd.). The amount of blood flow was periodically measured [see Meth and Find Exptl Clin Pharmacol, 3 (6), 397 (1981)].
Each of the test compounds was dissolved in a 2% tartaric acid solution containing 20% dimethylacetamide, and administered to the right femoral vein in a dose of 1 mg/kg.

A short description of series [1]: Acute toxicity (oral, mice). Conditions: mouse, in vivo, fasted male ddY mice, deaths during seven days, Weil method. The procedure:
ddY-strain male mice (body weight 18 to 22 g; five per group) were caused to fast 24 hours. Then, each of the compounds of this invention (A, B, C and D) was administered orally, and acute toxicity values (LD50) were determined.
Each of the compounds was dissolved or suspended in a 2% tartaric acid solution containing 20% of dimethylacetamide, and orally administered to the animals. From the number of animals which died during seven days, the LD50 values were calculated by using the Weil method.

The test system of series [2] is death induced by collagen and adrenaline. Put plainly: Activity of defending thromboembolism-induced death (collagen and adrenaline, mice, oral). In kind it is in vivo, ddY-strain male mice. Particulars: Mus musculus, 1 h, one hour before collagen (400 micrograms/kg) and adrenaline (50 micrograms/kg) i.v., male ddY mice, probit method, read-out: ED50 (dose required to defend death induced by collagen and adrenaline to an extent of 50%). The procedure: The compounds A, B, C and D of the invention and the comparative compounds 1 and 2 were used.
Each of the test compounds was dissolved or suspended in a 1% gum arabic solution, and orally administered to ddY-strain male mice (body weight 18 to 25 g; five per group). […] The dose required to defend death induced by collagen and adrenaline to an extent of 50% (ED50) was determined by the probit method (see The Journal of Pharmacology and Experimental Therapeutics, Vol. 225, page 57, 1983).

Where [3] appears, read: 0.5 minutes after administration.
The mark [4] stands for this setting: 10 minutes after administration.
Setting [5] is: 20 minutes after administration.

For `COc1ccc(CN2CCN(C(c3ccccc3)c3ccc(F)cc3)CC2)c(OC)c1.O=C(O)/C=C/C(=O)O` (stereo not drawn) [A, 1-(2,4-Dimethoxybenzyl)-4-(4-fluorobenzhydryl)-piperazine fumarate], the “Increase (%) in vertebral blood flow (mean ± standard error)” value (“Increase (%) … (mean ± standard error)” below) was 80.1 ± 17.0% in the series on vertebral blood flow (setting [3]); 56.5 ± 15.0% in the series on vertebral blood flow (3 minutes after administration); 39.1 ± 12.2% in the series on vertebral blood flow (5 minutes after administration); 16.2 ± 5.4% in the series with vertebral blood flow (setting [4]); 11.3 ± 4.1% in the series on vertebral blood flow (setting [5]). Also, the LD50 at 168 h in series [1] was 300 mg/kg. Further, the ED50 in series [2] was 29.6 mg/kg.
For the molecule `COc1ccc(CN2CCN(C(c3ccc(F)cc3)c3ccc(F)cc3)CC2)c(OC)c1.Cl.Cl.O.O` [B, 1-(2,4-Dimethoxybenzyl)-4-[bis(4-fluorophenyl)-methyl]piperazine dihydrochloride dihydrate], the “Increase (%) … (mean ± standard error)” value is listed as 105.6 ± 3.9% in the series on vertebral blood flow (setting [3]); 85.8 ± 15.0% in the series with vertebral blood flow (3 minutes after administration); 77.0 ± 15.6% in the series with vertebral blood flow (5 minutes after administration); 47.5 ± 17.7% in the series on vertebral blood flow (setting [4]); 27.1 ± 13.4% in the series with vertebral blood flow (setting [5]). Further, the LD50 at 168 h in series [1] was 225 mg/kg. Besides, the ED50 in series [2] came to 24.6 mg/kg.
With `COc1ccc(CN2CCN(C(c3ccccc3)c3ccc(F)cc3)CC2)c(OC)c1OC.O=C(O)/C=C/C(=O)O` (stereo not drawn) [C, 1-(2,3,4-Trimethoxybenzyl)-4-(4-fluorobenzhydryl)piperazine fumarate], the “Increase (%) … (mean ± standard error)” value is recorded as 76.7 ± 15.1% in the series on vertebral blood flow (setting [3]); 61.2 ± 14.9% with vertebral blood flow (3 minutes after administration); 50.6 ± 12.4% in the series on vertebral blood flow (5 minutes after administration); 27.7 ± 6.3% with vertebral blood flow (setting [4]); 16.4 ± 4.6% with vertebral blood flow (setting [5]). For the same molecule, the LD50 at 168 h in series [1] was found to be 650 mg/kg. Besides, the ED50 in series [2] came out at 32.7 mg/kg.
With `C(=Cc1ccccc1)CN1CCN(C(c2ccccc2)c2ccccc2)CC1` [Cinnarizine, 1-Cinnamyl-4-benzhydrylpiperazine, reference compound], the “Increase (%) … (mean ± standard error)” value with vertebral blood flow (setting [3]) is recorded as 65.6 ± 18.2%; in the series on vertebral blood flow (3 minutes after administration) it was 34.7 ± 15.6%; in the series with vertebral blood flow (5 minutes after administration) it was 17.0 ± 8.7%; in the series with vertebral blood flow (setting [4]), 2.9 ± 3.8%; in the series with vertebral blood flow (setting [5]), 0%.
Take `COc1ccc(CN2CCN(C(c3ccc(F)cc3)c3ccc(F)cc3)CC2)c(OC)c1OC.Cl.Cl` [Compound D, 1-(2,3,4-Trimethoxybenzyl)-4-[bis(4-fluorophenyl)methyl]piperazine dihydrochloride]: the “Increase (%) … (mean ± standard error)” value came to 95.9 ± 14.5% with vertebral blood flow (setting [3]); 102.6 ± 24.5% with vertebral blood flow (3 minutes after administration); 107.0 ± 23.9% in the series with vertebral blood flow (5 minutes after administration); 87.0 ± 21.1% in the series with vertebral blood flow (setting [4]); 65.1 ± 15.3% in the series with vertebral blood flow (setting [5]). Also, in series [1], the LD50 at 168 h came to 300 mg/kg. For the same molecule, the ED50 in series [2] came to 7.7 mg/kg.
On to `COc1ccc(CN2CCN(C(c3ccccc3)c3ccccc3)CC2)c(OC)c1OC.Cl.Cl.O` [compound 1, 1-(2,3,4-Trimethoxybenzyl)-4-benzhydrylpiperazine dihydrochloride monohydrate, reference compound], for which the “Increase (%) … (mean ± standard error)” value in the series on vertebral blood flow (setting [3]) was 75.3 ± 20.0%; in the series with vertebral blood flow (3 minutes after administration) it was 39.2 ± 15.3%; in the series with vertebral blood flow (5 minutes after administration), 25.6 ± 12.5%; in the series with vertebral blood flow (setting [4]) it was 10.0 ± 5.3%; with vertebral blood flow (setting [5]) it was 5.0 ± 3.3%. The ED50 in series [2] is 55.4 mg/kg.
On to `Cl.Cl.c1ccc(C(c2ccccc2)N2CCN(Cc3ccc4c(c3)OCO4)CC2)cc1` [compound 2, 1-(3,4-Methylenedioxybenzyl)-4-benzhydrylpiperazine dihydrochloride, reference compound], for which the “Increase (%) … (mean ± standard error)” value in the series with vertebral blood flow (setting [3]) came out at 50.6 ± 13.2%; in the series with vertebral blood flow (3 minutes after administration), 13.5 ± 6.9%; in the series on vertebral blood flow (5 minutes after administration), 7.4 ± 4.9%; in the series with vertebral blood flow (setting [4]), 2.5 ± 3.3%; in the series on vertebral blood flow (setting [5]) it was 0.4 ± 2.2%. For the same molecule, in series [2], the ED50 is 44.7 mg/kg.
